Test system: RPE cells
Test: Phagocytosis of RPE: FITC-ROS uptake, fluorescence intensity (total; ingestion with fluoro Quench dye)
Type: cell-based
Settings: for effect on the total phagocytosis of RPE: 0.1, 1, 10, 100 μg/ml, 24 hrs treatment in 2% FCS DMEM, then FITC-ROS 4 hrs, compared with 2% FCS; for effect on the phagocytosis of RPE (total and ingestion, FIGS. 8-15): summary based on FIGS. 8-15
Protocol: 1×10^4 RPE cells are seeded in 96-well microplate per well, containing 5% FCS in DMEM after 48 hrs, and the medium is changed with 2% FCS in DMEM. Then different concentrations of DCMPbL6,7D2H2H3 are added respectively. After 24 hrs, 50 μl of 2×10^7 FITC-ROS/ml is added into each well. Four hours later, the unbounded FITC-ROS is washed out with PBS+2% sucrose. The emission wavelength is 485 nm and the detecting wavelength is 530 nm. The fluorescence intensity is detected by a 1420 Multilable counter (PE) measurement system. The detected fluorescence intensity represents the total phagocytosis. If the fluoro Quench dye is added, the detected fluorescence intensity represents the ingestion phagocytosis. *P<0.05, **P<0.02, ***P<0.01 and ****P<0.001 are obtained by comparing with phagocytosis of RPE treated with 2% FCS.
1×10^4 RPE cells are seeded in 96-well microplate per well, containing 5% FCS in DMEM after 48 hrs, and the medium is changed with 2% FCS in DMEM. Then different concentrations of DCMPbL6,7D2H2H3H2 are added respectively. After 24 hrs, 50 μl of 2×10^7 FITC-ROS/ml is added into each well. Four hours later, the unbounded FITC-ROS is washed out with PBS+2% sucrose. The emission wavelength is 485 nm and the detecting wavelength is 530 nm. The fluorescence intensity is detected by a 1420 Multilable counter (PE) measurement system. The detected fluorescence intensity represents the total phagocytosis. If the fluoro Quench dye is added, the detected fluorescence intensity represents the ingestion phagocytosis. *P<0.05, **P<0.02, ***P<0.01 and ****P<0.001 are obtained by comparing with phagocytosis of RPE treated with 2% FCS.
1×10^4 RPE cells are seeded in 96-well microplate per well, containing 5% FCS in DMEM after 48 hrs, and the medium is changed with 2% FCS in DMEM. Then different concentrations of DCMPbL6,7D2H2H3H3 are added respectively. After 24 hrs, 50 μl of 2×10^7 FITC-ROS/ml is added into each well. Four hours later, the unbounded FITC-ROS is washed out with PBS+2% sucrose. The emission wavelength is 485 nm and the detecting wavelength is 530 nm. The fluorescence intensity is detected by a 1420 Multilable counter (PE) measurement system. The detected fluorescence intensity represents the total phagocytosis. If the fluoro Quench dye is added, the detected fluorescence intensity represents the ingestion phagocytosis. *P<0.05, **P<0.02, ***P<0.01 and ****P<0.001 are obtained by comparing with phagocytosis of RPE treated with 2% FCS.
1×10^4 RPE cells are seeded in 96-well microplate per well, containing 5% FCS in DMEM after 48 hrs, and the medium is changed with 2% FCS in DMEM. Then different concentrations of DCMPbL6,7D2H2H3H4 are added respectively. After 24 hrs, 50 μl of 2×10^7 FITC-ROS/ml is added into each well.

Compound	effect on the total phagocytosis of RPE	effect on the phagocytosis of RPE (total and ingestion, FIGS. 8-15)
O=c1cc(-c2ccc(O)cc2)oc2c([C@@H]3OC[C@H](O)[C@H](O)[C@H]3O)c(O)c([C@@H]3OC[C@@H](O)[C@H](O)[C@H]3O)c(O)c12 [DCMPbL6,7D2H2H3H2, apigenin 6-C-β-D-Xylopyranosyl-8-C-α-L-arabinopyranoside]	can accelerate the phagocytosis of RPE	could accelerate the phagocytosis of RPE
O=c1cc(-c2ccc(O)cc2)oc2c([C@@H]3OC[C@H](O)[C@H](O)[C@H]3O)c(O)c([C@@H]3OC[C@H](O)[C@H](O)[C@H]3O)c(O)c12 [DCMPbL6,7D2H2H3H3, apigenin 6,8-Di-C-α-L-arabinopyranoside]	can accelerate the phagocytosis of RPE	could accelerate the phagocytosis of RPE
O=c1cc(-c2ccc(O)cc2)oc2c([C@@H]3OC[C@@H](O)[C@@H](O)[C@@H]3O)c(O)c([C@@H]3OC[C@H](O)[C@H](O)[C@H]3O)c(O)c12 [DCMPbL6,7D2H2H3H4, apigenin 6-C-α-L-Arabinopyranosyl-8-C-β-D-arabinopyranoside]	can accelerate the phagocytosis of RPE	could accelerate the phagocytosis of RPE

From patent US8426371B2, “Biologically active extract from Dendrobium plant, use thereof and process for preparing the same” (National Yang-Ming University, priority 2007, dated 2013)
